Test results reported in patent US12364692B2, “Topical naloxone compositions and methods for using the same” (Teikoku Pharma USA, Inc., priority 2020, dated 2025).

Tests used:
[1] = control and treatments other than hydrogen peroxide (5N hydrochloric acid, 5N sodium hydroxide 18 hours, 60° C. 2 weeks); peak areas relative to total area
[2] = test system: mice (HOS:HR-1 hairless) with atopic dermatitis skin symptoms; test: Scratching behavior in hairless mouse model of atopic dermatitis pruritis; assay type: in vivo; conditions: FIGS. 3-6; topical 0.1 ml/day, days 34, 41, 48, 55
Description: Atopic dermatitis skin symptoms were induced by providing a special feed diet 10 to mice (HOS:HR-1 hairless). All groups were treated with daily 0.1 ml/day of ointment over the entire back of each mouse for three consecutive weeks starting on Day 34. Mice were video recorded predose (baseline activity) for 30 minutes and observed for scratching for a period of one hour post application on days 34, 35, 38, 41, 45, 48, and 55. The topical naloxone active agent composition was allowed to dry 15 for one (1) hour prior to video recording of scratching behavior. Scratching behavior was monitored every 5 minutes for an hour where the number of scratching bouts includes one or more of the following actions: hind leg raised, scratching the back or lowering the leg to the floor. Cumulative duration of scratching behavior was also determined. Trans-epidermal water loss (TEWL) measured on Days 34, 48, 55 20 (Phase 2) and Days 33 and 55 (Phase 3) was also measured.

C=CCN1CC[C@]23c4c5ccc(O)c4O[C@H]2C(=O)CC[C@@]3(O)[C@H]1C5 [naloxone drug substance, naloxone]
total related substances [1]: below 1%

C=CCN1CC[C@]23c4c5ccc(O)c4O[C@H]2C(=O)CC[C@@]3(O)[C@H]1C5 [naloxone free base, naloxone]
cumulative scratching duration [2]: decreased
mean scratching bouts [2]: decreased
